Test results as given in patent US4120895A, “S-phenenyltris (iminocarbonyl) triisophthalic acid salts” (American Cyanamid Company, priority 1977, dated 1978).
Where a name gives a salt, the structure may show the parent alone.

How the values were obtained:
[1] = tested on: Citrated sheep plasma (CSP); experiment: in vitro anti-coagulant activity (AC); assay type: biochemical
Procedure: The sheep RBC's, kept in suspension throughout the clotting incubation time, become enmeshed in the fibrin matrix if a clot forms. Upon centrifugation of the plate, untrapped RBC's form buttons, the sizes of which correspond to the degree of clot inhibition; this providing a measure of anti-coagulant activity (AC). Sodium heparin is used as a positive control and activity is reported in wells appearing in Table I.

activated human C1 = molecular target: T1, activated human C1 (Homo sapiens, UniProt P09871); experiment: Test, Code 026 (C1 inhibitor); assay type: biochemical
T1 construct: fluid-phase human C2 consumption in presence of C4
T1 sequence (P09871 16-688): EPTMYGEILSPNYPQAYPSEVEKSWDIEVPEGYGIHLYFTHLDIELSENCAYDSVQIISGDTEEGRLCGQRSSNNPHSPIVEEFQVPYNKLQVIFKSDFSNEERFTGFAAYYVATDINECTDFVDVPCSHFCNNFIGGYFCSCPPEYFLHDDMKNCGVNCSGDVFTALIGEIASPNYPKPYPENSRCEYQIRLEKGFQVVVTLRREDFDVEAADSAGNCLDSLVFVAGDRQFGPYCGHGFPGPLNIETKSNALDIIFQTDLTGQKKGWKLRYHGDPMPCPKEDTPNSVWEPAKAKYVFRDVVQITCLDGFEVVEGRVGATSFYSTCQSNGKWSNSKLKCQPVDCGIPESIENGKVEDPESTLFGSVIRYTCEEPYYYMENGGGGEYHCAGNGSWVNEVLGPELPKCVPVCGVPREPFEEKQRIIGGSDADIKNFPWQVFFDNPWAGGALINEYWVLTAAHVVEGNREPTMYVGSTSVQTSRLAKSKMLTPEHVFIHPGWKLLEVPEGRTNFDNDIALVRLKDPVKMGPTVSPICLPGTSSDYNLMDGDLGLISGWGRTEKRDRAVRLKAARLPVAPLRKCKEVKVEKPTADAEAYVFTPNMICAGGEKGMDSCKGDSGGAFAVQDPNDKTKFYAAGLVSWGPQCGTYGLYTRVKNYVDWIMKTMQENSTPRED
T1 sequence (P00736 18-705 partner): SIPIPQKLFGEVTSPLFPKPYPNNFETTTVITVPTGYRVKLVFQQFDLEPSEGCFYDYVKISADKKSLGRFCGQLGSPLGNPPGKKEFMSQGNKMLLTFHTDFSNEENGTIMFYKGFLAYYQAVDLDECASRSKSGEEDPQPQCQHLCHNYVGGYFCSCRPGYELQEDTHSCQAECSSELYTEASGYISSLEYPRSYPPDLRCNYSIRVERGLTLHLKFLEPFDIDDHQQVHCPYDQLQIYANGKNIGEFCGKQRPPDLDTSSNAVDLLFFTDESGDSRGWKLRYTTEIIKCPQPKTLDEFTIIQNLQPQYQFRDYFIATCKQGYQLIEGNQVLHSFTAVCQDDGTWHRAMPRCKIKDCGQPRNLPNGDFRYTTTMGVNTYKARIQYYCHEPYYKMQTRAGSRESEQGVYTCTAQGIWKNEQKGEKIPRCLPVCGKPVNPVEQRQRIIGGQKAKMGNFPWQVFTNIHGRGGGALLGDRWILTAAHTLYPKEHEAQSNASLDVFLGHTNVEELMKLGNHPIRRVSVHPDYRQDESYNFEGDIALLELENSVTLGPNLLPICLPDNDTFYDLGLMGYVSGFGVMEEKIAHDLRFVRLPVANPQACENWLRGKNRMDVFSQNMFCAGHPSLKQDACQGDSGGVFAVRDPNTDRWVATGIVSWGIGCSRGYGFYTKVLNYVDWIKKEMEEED
T1 sequence (P02745 23-245 partner): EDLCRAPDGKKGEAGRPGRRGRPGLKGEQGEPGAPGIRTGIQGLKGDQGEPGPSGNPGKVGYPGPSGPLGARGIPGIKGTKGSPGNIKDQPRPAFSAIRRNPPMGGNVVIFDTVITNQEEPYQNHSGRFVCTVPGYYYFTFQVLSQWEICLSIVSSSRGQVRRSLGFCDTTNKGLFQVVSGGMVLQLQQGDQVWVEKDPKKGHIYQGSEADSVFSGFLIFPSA
T1 sequence (P02746 28-253 partner): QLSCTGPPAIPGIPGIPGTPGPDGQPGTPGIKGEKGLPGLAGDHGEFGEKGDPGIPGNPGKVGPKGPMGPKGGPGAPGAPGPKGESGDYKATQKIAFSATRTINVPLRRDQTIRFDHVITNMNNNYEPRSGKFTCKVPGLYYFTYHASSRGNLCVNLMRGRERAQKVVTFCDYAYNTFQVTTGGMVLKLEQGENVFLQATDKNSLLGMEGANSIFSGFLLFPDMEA
T1 sequence (P02747 29-245 partner): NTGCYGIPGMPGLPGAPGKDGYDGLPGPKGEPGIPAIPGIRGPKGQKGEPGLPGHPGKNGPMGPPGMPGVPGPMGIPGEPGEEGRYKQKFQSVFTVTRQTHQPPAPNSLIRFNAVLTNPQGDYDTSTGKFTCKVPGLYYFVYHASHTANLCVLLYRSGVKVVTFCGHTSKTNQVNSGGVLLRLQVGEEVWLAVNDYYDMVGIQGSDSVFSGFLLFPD
Excerpt: An active inhibitor protects C2 from C1 and C4; (ii) Test, Code 035 (C3-C9 inhibitor)-This test determines the ability of the late components of human complement (C3-C9) to lyse EAC 142 in the presence of appropriate dilutions of the test compound. An active inhibitor protects EAC 142 from lysis by human C3-C9; (iii) Test, Code 036 (C-Shunt inhibitor) - In this test human erythrocytes rendered fragile are lysed in autologous serum via the shunt pathway activated by cobra venom factor in the presence of appropriate dilutions of the test compound. Inhibition of the shunt pathway results in failure of lysis; (iv) Forssman Vasculitis Test -- Here, the well known complement dependent lesion, Forssman vasculitis, is produced in guinea pigs by intradermal injection of rabbit anti-Forssman antiserum. The lesion is measured in terms of diameter, edema and hemorrhage and the extent to which a combined index of these is inhibited by prior intraperitoneal injection of the test compound at 200 mg/kg is then reported, unless otherwise stated; (v) Forssman Shock Test -- Lethal shock is produced in guinea pigs by an i.v. injection of anti-Forssman antiserum and the harmonic mean death time of treated guinea pigs is compared with that of simultaneous controls; (vi) Complement Level Reduction Test -- In this test, the above dosed guinea pigs, or others, are bled for serum and the complement level is determined in undiluted serum by the capillary tube method of U.S. Pat. No. 3,876,376 and compared to undosed control guinea pigs; and (vii) Cap 50 Test -- Here, appropriate amounts of the test compound are added to a pool of guinea pig serum in vitro, after which the undiluted serum capillary tube assay referred to above is run. The concentration of compound inhibiting 50% is reported.

O=C(O)c1cc(C(=O)O)cc(C(=O)Nc2cc(NC(=O)c3cc(C(=O)O)cc(C(=O)O)c3)cc(NC(=O)c3cc(C(=O)O)cc(C(=O)O)c3)c2)c1 [5,5',5"-[s-Phenenyltris(iminocarbonyl)]triisophthalic acid hexasodium salt]
AC Wells ([1]; Table I, clot inhibition, recalcified citrated sheep plasma with sheep RBC, serial dilutions): < -2 Wells | In Vitro Activity, Anti-Coagulant Activity (Wells) AC ([1]; Table II): -2 Wells | Cl 026 Wells (activated human C1; Table I, two-fold serial dilution assay, higher well number indicates higher activity): +3 Wells | In Vitro Activity, Complement Inhibiting Activity (Wells) Code 026 (activated human C1; Table II): +3 Wells | Logarithmic Difference Expressed as Wells (activated human C1; Table II, Code 026 wells minus AC wells (base 2)): +5 Wells
